Converted amounts (≈) assume the structure as drawn. Values belong to the compound of their own block, whether it stands above or below them.
Tests used:
[1] = test system: Klebsiella pneumoniae NCTC 9528; assay: MIC by agar dilution, single strains; format: cell-based; settings: NCTC9528, 22 hours of incubation, read-out: Minimum inhibitory concentration (MIC)
Description: (§1) Determining the minimum inhibitory concentrations (MIC). All the MICs were determined using an agar dilution method. This required use of a medium without a defined antagonist (peptone-free), prepared as described previously with the inclusion of 2% horse blood lysed with saponin, 25.0 μg/mL of NAD and 25.0 μg/mL of hemin [17]. The compounds tested were dissolved in sterile deionised water and incorporated into the agar medium in a concentration range of 0.0031 to 8.0 μg/mL (0.016 to 32 μg/mL for gram-positive bacteria). All the isolates were prepared at a density equivalent to 0.5 McFarland units in sterile deionised water using a densitometer (approximately 1.5×10^8 CFU/mL), and then diluted to 1 for 15. An aliquot of 1 μL of each diluted suspension was then placed onto plates with a multispot inoculator to give the final recommended inoculation of 10 000 CFU/spot. The MICs of fosfomycin were determined by the same method, except that the IsoSensitest medium (Oxoid, Basingstoke, United Kingdom) was used, plus 25.0 μg/mL of glucose-6-phosphate (Sigma, Poole, United Kingdom) and an extended range of fosfomycin concentrations. All the dishes (including the antimicrobial-free controls) were incubated for 22 hours at 37° C. All the tests were performed on at least two independent replicates in order to examine the reproducibility.

[2] = test system: Pseudomonas aeruginosa NCTC 10662; assay: MIC by agar dilution, single strains; format: cell-based; settings: NCTC10662, 22 hours of incubation, read-out: Minimum inhibitory concentration (MIC)
Description: as §1

[3] = test system: Salmonella enteritidis NCTC 6676; assay: MIC by agar dilution, single strains; format: cell-based; settings: Salmonella enterica, 22 hours of incubation, read-out: Minimum inhibitory concentration (MIC)
Description: as §1

[4] = test system: Enterobacter cloacae NCTC 11936; assay: MIC by agar dilution, single strains; format: cell-based; settings: NCTC11936, 22 hours of incubation, read-out: Minimum inhibitory concentration (MIC)
Description: as §1

[5] = test system: Staphylococcus aureus NCTC 6571; assay: MIC by agar dilution, single strains; format: cell-based; settings: NCTC6571, 22 hours of incubation, read-out: Minimum inhibitory concentration (MIC)
Description: as §1

[6] = test system: Enterococcus faecalis NCTC 775; assay: MIC by agar dilution, single strains; format: cell-based; settings: NCTC775, 22 hours of incubation, read-out: Minimum inhibitory concentration (MIC)
Description: as §1

[7] = test system: Salmonella typhimurium NCTC 74; assay: MIC by agar dilution, single strains; format: cell-based; settings: Salmonella enterica, 22 hours of incubation, read-out: Minimum inhibitory concentration (MIC)
Description: as §1

[8] = test system: Staphylococci epidermidis NCTC 11047; assay: MIC by agar dilution, single strains; format: cell-based; settings: 22 hours of incubation, read-out: Minimum inhibitory concentration (MIC)
Description: as §1

[9] = test system: Serratia marcescens NCTC 10211; assay: MIC by agar dilution, single strains; format: cell-based; settings: NCTC10211, 22 hours of incubation, read-out: Minimum inhibitory concentration (MIC)
Description: as §1

[10] = test system: Burkholderia cepacia ATCC 25416; assay: MIC by agar dilution, single strains; format: cell-based; settings: ATCC25416, 22 hours of incubation, read-out: Minimum inhibitory concentration (MIC)
Description: as §1

[11] = test system: Escherichia coli NCTC 10418; assay: MIC by agar dilution, single strains; format: cell-based; settings: NCTC10418, 22 hours of incubation, read-out: Minimum inhibitory concentration (MIC)
Description: as §1

[12] = test system: Listeria monocytogenes NCTC 11994; assay: MIC by agar dilution, single strains; format: cell-based; settings: NCTC11994, 22 hours of incubation, read-out: Minimum inhibitory concentration (MIC)
Description: as §1

[13] = test system: Staphylococcus aureus NCTC 11939 (SARM); assay: MIC by agar dilution, single strains; format: cell-based; settings: NCTC11939, 22 hours of incubation, read-out: Minimum inhibitory concentration (MIC)
Description: as §1

[14] = test system: Acinetobacter baumannii ATCC 19606; assay: MIC by agar dilution, single strains; format: cell-based; settings: ATCC19606, 22 hours of incubation, read-out: Minimum inhibitory concentration (MIC)
Description: as §1

[15] = test system: Providencia rettgeri NCTC 7475; assay: MIC by agar dilution, single strains; format: cell-based; settings: NCTC7475, 22 hours of incubation, read-out: Minimum inhibitory concentration (MIC)
Description: as §1

[16] = test system: Escherichia coli NCTC 12241; assay: MIC by agar dilution, single strains; format: cell-based; settings: NCTC12241, 22 hours of incubation, read-out: Minimum inhibitory concentration (MIC)
Description: as §1

[17] = test system: Yersinia enterocolitica NCTC 11176; assay: MIC by agar dilution, single strains; format: cell-based; settings: NCTC11176, 22 hours of incubation, read-out: Minimum inhibitory concentration (MIC)
Description: as §1

[18] = test system: Enterococcus faecium NCTC 7171; assay: MIC by agar dilution, single strains; format: cell-based; settings: NCTC7171, 22 hours of incubation, read-out: Minimum inhibitory concentration (MIC)
Description: as §1

[19] = test system: All S. aureus (50); assay: MIC by agar dilution; format: cell-based, Staphylococcus aureus; settings: All S. aureus (50)
Text: (§2) A collection of 50 isolates of Staphylococci aureus included 36 strains of methicillin-resistant S. aureus (MRSA) frequently encountered in Europe, including strains isolated in Belgium, Finland, France, Germany and the United Kingdom. Another strain of MRSA, NCTC 11939, was included as a control, as well as a methicillin-sensitive control (NCTC 6571). Twelve other isolates of methicillin-sensitive Staphylococcus aureus (MSSA) recently collected from blood cultures were also included. Finally, 50 isolates of enterococci included two control strains (Enterococcus faecalis NCTC 755 and Enterococcus faecium NCTC 7171) and 48 isolates originating from clinical samples obtained from at least three different hospitals. The clinical isolates included E. faecalis (n=10), E. faecium (n=33), Enterococcus casseliflavus (n=3), Enterococcus gallinarum (n=2).
as §1

[20] = test system: K. pneumoniae (87); assay: MIC by agar dilution; format: cell-based, Klebsiella pneumoniae; settings: Klebsiella pneumoniae, K. pneumoniae (87)
Text: (§3) Bacterial isolates. […] These included Citrobacter freundii (n=5), other species of Citrobacter (n=4), Enterobacter aerogenes (n=1), Enterobacter cloacae (n=27), Escherichia coli (n=53), Klebsiella oxytoca (n=5), Klebsiella pneumoniae (n=87), Kluyvera spp (n=1), Proteus mirabilis (n=8), Providencia rettgeri (n=2), Salmonella spp (n=3), and Serratia marcescens (n=1). Among these 197 isolates, there were 128 (65%) carbapenemase producers, including; 87 with NDM-1, 9 with IMP, 11 with KPC, 14 with OXA-48 and 7 with VIM. The majority of the carbapenemase producers jointly produced broad-spectrum β-lactamases (BSBL) or cephalosporinases (AmpC β-lactamases), but the latter are not documented for the sake of clarity.
as §1

[21] = test system: E. faecalis (11); assay: MIC by agar dilution; format: cell-based, Enterococcus faecalis; settings: Enterococcus faecalis, E. faecalis (11)
Text: as §2, §1

[22] = test system: E. faecium (34); assay: MIC by agar dilution; format: cell-based, Enterococcus faecium; settings: Enterococcus faecium, E. faecium (34)
Text: as §2, §1

[23] = test system: E. cloacae (27); assay: MIC by agar dilution; format: cell-based, Enterobacter cloacae; settings: E. cloacae (27)
Text: as §3, §1

[24] = test system: E. coli (53); assay: MIC by agar dilution; format: cell-based, Escherichia coli; settings: E. coli (53)
Text: as §3, §1

[25] = test system: methicillin-resistant Staphylococcus aureus; assay: MIC by agar dilution; format: cell-based
Text: as §2, §1

[26] = test system: glycopeptide-resistant enterococci; assay: MIC by agar dilution; format: cell-based; settings: GRE (43)
Text: as §2, §1

[27] = test system: methicillin-sensitive Staphylococcus aureus; assay: MIC by agar dilution; format: cell-based; settings: MSSA (13)
Text: as §2, §1

[28] = test system: All Enterococci (50); assay: MIC by agar dilution; format: cell-based; settings: All Enterococci (50)
Text: as §2, §1

[29] = test system: Enterobacteriaceae (197); assay: MIC by agar dilution; format: cell-based; settings: Enterobacteriaceae (197)
Text: as §3, §1

[30] = test system: Enterobacteriaceae with a broad-spectrum β-lactamase; assay: MIC by agar dilution; format: cell-based
Text: as §3, §1

[31] = test system: carbapenemase-producing Enterobacteriaceae; assay: MIC by agar dilution; format: cell-based
Text: as §3, §1

[32] = test system: AmpC (22); assay: MIC by agar dilution; format: cell-based, Enterobacteriaceae
Text: as §3, §1

[33] = Staphylococcus aureus, read-out: MIC50
[34] = Staphylococcus aureus, read-out: MIC90
[35] = Staphylococcus aureus, read-out: Modal MIC (most frequent MIC)
[36] = read-out: Modal MIC (most frequent MIC)

- MIC [1]: 0.25 µg/mL (≈ 0.847 µM)
- MIC [2]: > 8 µg/mL
- MIC [3]: > 8 µg/mL
- MIC [4]: > 8 µg/mL
- MIC [5]: 1 µg/mL (≈ 3.39 µM)
- MIC [6]: 0.063 µg/mL (≈ 0.213 µM)
- MIC [7]: > 8 µg/mL
- MIC [8]: 1 µg/mL (≈ 3.39 µM)
- MIC [9]: 0.25 µg/mL (≈ 0.847 µM)
- MIC [10]: > 8 µg/mL
- MIC [11]: 1 µg/mL (≈ 3.39 µM)
- MIC [12]: > 8 µg/mL
- MIC [13]: > 8 µg/mL
- MIC [14]: > 8 µg/mL
- MIC [15]: > 8 µg/mL
- MIC [16]: 1 µg/mL (≈ 3.39 µM)
- MIC [17]: 0.125 µg/mL (≈ 0.423 µM)
- MIC [18]: 1 µg/mL (≈ 3.39 µM)
SMILES: CCC[C@H](N)C(=O)N[C@@H](C)C(=O)NC(C)P(=O)(O)O (stereo partly drawn) [compound I, L-norvalinyl-L-alanyl-D/L-fosfalin]

SMILES: C[C@H](NC(=O)[C@H](CCl)NC(=O)[C@@H](N)CCl)P(=O)(O)O [β-Cl-Ala-β-Cl-Alafosfalin, β-chloro-L-alanyl-β-chloro-L-alanyl-L-1-aminoethylphosphonic acid]
- MIC Range [19]: 2 to 16 µg/mL
- MIC50 [19, 33]: 16 µg/mL (≈ 47.6 µM)
- MIC90 [19, 34]: 16 µg/mL (≈ 47.6 µM)
- MIC [19, 35]: 16 µg/mL (≈ 47.6 µM)
- MIC50 ([20]; read-out: MIC50): 4 µg/mL (≈ 11.9 µM)
- MIC90 ([20]; read-out: MIC90): > 8 µg/mL
- MIC [20, 36]: 4 µg/mL (≈ 11.9 µM)
- MIC50 ([21]; read-out: MIC50): 0.25 µg/mL (≈ 0.744 µM)
- MIC90 ([21]; read-out: MIC90): 4 µg/mL (≈ 11.9 µM)
- MIC [21, 36]: 0.25 µg/mL (≈ 0.744 µM)
- MIC50 ([22]; read-out: MIC50): 8 µg/mL (≈ 23.8 µM)
- MIC90 ([22]; read-out: MIC90): 8 µg/mL (≈ 23.8 µM)
- MIC [22, 36]: 8 µg/mL (≈ 23.8 µM)
- MIC Range [23]: 0.25 to 8 µg/mL
- MIC50 ([23]; Enterobacter cloacae, read-out: MIC50): 1 µg/mL (≈ 2.98 µM)
- MIC90 ([23]; Enterobacter cloacae, read-out: MIC90): 4 µg/mL (≈ 11.9 µM)
- MIC ([23]; Enterobacter cloacae, read-out: Modal MIC (most frequent MIC)): 1 µg/mL (≈ 2.98 µM)
- MIC Range [24]: ≤0.031-1 ^ μg/mL
- MIC50 ([24]; Escherichia coli, read-out: MIC50): 0.25 µg/mL (≈ 0.744 µM)
- MIC90 ([24]; Escherichia coli, read-out: MIC90): 1 µg/mL (≈ 2.98 µM)
- MIC ([24]; Escherichia coli, read-out: Modal MIC (most frequent MIC)): 0.25 µg/mL (≈ 0.744 µM)
- MIC Range ([25]; MRSA (37)): 2 to 16 µg/mL
- MIC ([25]; Staphylococcus aureus, MRSA, read-out: Modal MIC (most frequent MIC)): 16 µg/mL (≈ 47.6 µM)
- MIC50 ([25]; Staphylococcus aureus, MRSA (37), read-out: MIC50): 16 µg/mL (≈ 47.6 µM)
- MIC90 ([25]; Staphylococcus aureus, MRSA (37), read-out: MIC90): 16 µg/mL (≈ 47.6 µM)
- MIC50 ([26]; read-out: MIC50): 8 µg/mL (≈ 23.8 µM)
- MIC90 ([26]; read-out: MIC90): 16 µg/mL (≈ 47.6 µM)
- MIC Range [27]: 4 to 16 µg/mL
- MIC50 [27, 33]: 16 µg/mL (≈ 47.6 µM)
- MIC90 [27, 34]: 16 µg/mL (≈ 47.6 µM)
- MIC [27, 35]: 16 µg/mL (≈ 47.6 µM)
- MIC50 ([28]; read-out: MIC50): 8 µg/mL (≈ 23.8 µM)
- MIC90 ([28]; read-out: MIC90): 16 µg/mL (≈ 47.6 µM)
- MIC [28, 36]: 8 µg/mL (≈ 23.8 µM)
- MIC50 ([29]; read-out: MIC50): 2 µg/mL (≈ 5.95 µM)
- MIC90 ([29]; read-out: MIC90): > 8 µg/mL
- MIC [29, 36]: 4 µg/mL (≈ 11.9 µM)
- MIC50 [30]: 4 µg/mL (≈ 11.9 µM)
- MIC90 [30]: > 8 µg/mL
- MIC [30, 36]: > 8 µg/mL
- MIC50 [31]: 2 µg/mL (≈ 5.95 µM)
- MIC90 [31]: 8 µg/mL (≈ 23.8 µM)
- MIC [31, 36]: 4 µg/mL (≈ 11.9 µM)
- MIC90 [32]: > 8 µg/mL
- MIC [32, 36]: > 8 µg/mL

Reference: US9969758B2, “Antimicrobial compounds” (BIOMERIEUX, priority 2014, dated 2018)
